Assay results published in patent US20250092069A1, “SILYL-LIPID CA[…] ENHANCED BIOLOGICAL ACTIVITY” (The Regents of the University of California, priority 2022, published 2025).

How the values were obtained:
CB1 [1] = molecular target: T1, CB1 (Homo sapiens, UniProt P21554); assay: CB1 β-arrestin recruitment agonist assay (Eurofin's); type: cell-based; settings: agonist mode; for EC50: read-out: RC50 (EC50), agonist, CB1
CB2 [2] = molecular target: T2, CB2 (Homo sapiens, UniProt P34972); assay: CB2 β-arrestin recruitment antagonist assay (Eurofin's); type: cell-based; settings: antagonist mode, 0.0053 μM CP55940; for IC50: β-arrestin recruitment, read-out: RC50 (IC50), antagonist, CB2
T2 sequence (P34972 whole entry): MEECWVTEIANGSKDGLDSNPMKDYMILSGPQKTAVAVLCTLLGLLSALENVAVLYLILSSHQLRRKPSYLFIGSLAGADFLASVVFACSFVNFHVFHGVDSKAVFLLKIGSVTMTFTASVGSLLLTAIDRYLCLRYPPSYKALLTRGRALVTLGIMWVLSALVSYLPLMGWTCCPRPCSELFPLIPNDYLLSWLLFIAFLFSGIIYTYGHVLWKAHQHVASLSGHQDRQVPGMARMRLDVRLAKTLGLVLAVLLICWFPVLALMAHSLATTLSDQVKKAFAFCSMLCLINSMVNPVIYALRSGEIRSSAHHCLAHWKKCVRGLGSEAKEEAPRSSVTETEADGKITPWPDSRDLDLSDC
From the text: (§1) For antagonist assays, data was normalized to the maximal and minimal response observed in the presence of EC80 ligand and vehicle.

CB2 [3] = molecular target: T2, CB2; assay: CB2 β-arrestin recruitment agonist assay (Eurofin's); type: cell-based; settings: for Emax / EC50: β-arrestin recruitment, agonist mode; for EC50: read-out: RC50 (EC50), agonist, CB2
CB1 [4] = molecular target: T1, CB1; assay: CB1 β-arrestin recruitment antagonist assay (Eurofin's); type: cell-based; settings: antagonist mode, 0.016 μM CP55940; for IC50: β-arrestin recruitment, read-out: RC50 (IC50), antagonist, CB1
From the text: as §1

TNF-α release = settings: at 30 min, LPS-induced model; cited from earlier work
[5] = cited from earlier work
[6] = normalized to response with EC80 ligand and vehicle

T1 sequence (P21554 whole entry): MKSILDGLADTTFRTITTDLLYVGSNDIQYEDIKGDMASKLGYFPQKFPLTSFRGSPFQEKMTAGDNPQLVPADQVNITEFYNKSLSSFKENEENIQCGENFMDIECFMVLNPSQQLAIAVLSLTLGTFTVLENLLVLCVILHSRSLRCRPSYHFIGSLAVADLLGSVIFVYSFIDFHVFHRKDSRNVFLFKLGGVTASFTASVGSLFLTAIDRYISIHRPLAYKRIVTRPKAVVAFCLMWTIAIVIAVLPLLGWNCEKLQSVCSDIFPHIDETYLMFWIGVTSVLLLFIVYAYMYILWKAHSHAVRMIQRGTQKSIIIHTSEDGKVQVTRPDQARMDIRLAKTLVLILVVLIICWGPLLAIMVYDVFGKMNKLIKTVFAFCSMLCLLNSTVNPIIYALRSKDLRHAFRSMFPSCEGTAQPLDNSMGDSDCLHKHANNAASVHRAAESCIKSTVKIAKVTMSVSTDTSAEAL

Compound: C=C(C)[C@H]1CCC(C)=C[C@@H]1c1c(O)cc([Si](C)(C)CCCCCC)cc1O [AAC-01]
- Emax (CB1 [1]): 64.8%
- EC50 (CB1 [1]): 33.3 nM
- Emax (CB2 [2]; [6]): 69.7%
- IC50 (CB2 [2]): 1870 nM
- Emax (CB2 [3]): 70%
- EC50 (CB2 [3]): 4.14 nM
- Emax (CB1 [4]; [6]): 86.4%
- IC50 (CB1 [4]): 2070 nM

Compound: C=C(C)[C@H]1CCC(C)=C[C@@H]1c1c(O)cc(CC[Si](C)(C)CCCC)cc1O [AAC-02]
- EC50 (CB1 [1]): > 10000 nM
- IC50 (CB2 [2]): > 10000 nM
- selectivity for CB2 vs CB1 (CB2 [3]; agonist EC50 CB1 vs CB2): 500 ×
- Emax (CB2 [3]): 50.3%
- EC50 (CB2 [3]): 18 nM
- Emax (CB1 [4]; [6]): 71.1%
- IC50 (CB1 [4]): 2230 nM

Compound: Cc1c(C(=O)NN2CCOCC2)nn(-c2ccc(Cl)cc2Cl)c1-c1ccc(I)cc1 [AM281, reference compound]
- Emax, antagonist, CB1 (CB1 [4]; [6]): 106.6%
- IC50 (CB1 [4]): 10.5 nM

Compound: Cc1ccc(-n2nc(C(C)(C)C)cc2NC(=O)Nc2ccc(OCCN3CCOCC3)c3ccccc23)cc1 [BIRB-796]
- TNF-α suppression (TNF-α release): 41%

Compound: CCCCCCC(C)(C)c1ccc([C@@H]2C[C@H](O)CC[C@H]2CCCO)c(O)c1 [CP55,940, reference compound]
- Emax (CB2 [3]): 101%

Compound: O=C(O)[C@@H]1CCCN1C(=O)OCC1c2ccccc2-c2ccccc21 [Fmoc-Pro]
- Log P [5]: 0.094

Compound: C[Si]1(C)CC(C(=O)O)N(C(=O)OCC2c3ccccc3-c3ccccc32)C1 (stereo not drawn) [Fmoc-Sip]
- Log P [5]: 1.3

Compound: CC(C)(C)c1ccccc1 [t-butylbenzene]
- Log P [5]: 4.0

Compound: C[Si](C)(C)c1ccccc1 [trimethylsilyl-benzene]
- Log P [5]: 4.7

Compound: SR 144528 [reference compound]
- Emax, antagonist, CB2 (CB2 [2]; [6]): 101.6%
